Test results taken from article PMC11438954 (Nature Communications, 2024).
pIC50: −log10 of the molar value.

Columns and labels:
[1] = molecular target: T1, NavMs (Magnetococcus marinus, UniProt A0L5S6, F208L); assay: X-ray crystal structure with sulphur anomalous signal; […]-19F STD NMR; IC50 from whole-cell patch clamp (SSI shift) in HEK293T cells; type: cell-based
T1 construct: gene Mmc1_0798; full-length homotetrameric channel, thrombin-treated

[2] = molecular target: NavMs (NavMs F208L, referred to as WT in the paper), prokaryotic voltage-gated sodium channel from Magnetococcus marinus (Magnetococcus marinus) (UniProt A0L5S6); assay: crystal structure; NavMs (10 mg/ml, 300 uM) with 0.5 mM riluzole in 1% DMSO, or 1% DMSO alone; sitting drops at 4 °C, 30-35% PEG 300, 100 mM HEPES pH 7, 0-100 mM NaCl, HEGA-10 detergent; space group I422, one monomer per asymmetric unit, tetramer by crystal symmetry

T1 sequence (A0L5S6 entry or part of it F208L): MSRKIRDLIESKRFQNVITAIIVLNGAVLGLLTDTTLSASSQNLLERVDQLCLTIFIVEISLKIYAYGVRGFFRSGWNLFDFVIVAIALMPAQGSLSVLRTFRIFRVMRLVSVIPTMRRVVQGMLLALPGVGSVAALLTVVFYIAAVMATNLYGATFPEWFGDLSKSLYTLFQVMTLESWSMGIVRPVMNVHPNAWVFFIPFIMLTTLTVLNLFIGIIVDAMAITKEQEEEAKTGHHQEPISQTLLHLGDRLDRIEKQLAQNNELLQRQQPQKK

Compound | pIC50 [1] | stoichiometry N [2]
Nc1nc2ccc(OC(F)(F)F)cc2s1 [riluzole, 2-amino-6-(trifluoromethoxy)benzothiazole] | 5.70 | –
NavMs (NavMs F208L, referred to as WT in the paper), prokaryotic voltage-gated sodium channel from Magnetococcus marinus (from UniProt A0L5S6 1-274) (natural protein) | – | 4
